Assay results as given in the CheMixHub viscosity set.

Assay: xn = mol fraction of the nth substance listed

COCCOC + CCCCCCCCCO
101 kPa
Settings | viscosity [mPa·s]
293.15 K, x1 = 0.05508 | 9.45
293.15 K, x1 = 0.1012 | 7.813
293.15 K, x1 = 0.2007 | 5.336
293.15 K, x1 = 0.2922 | 3.86
293.15 K, x1 = 0.393 | 2.747
293.15 K, x1 = 0.494 | 1.994
293.15 K, x1 = 0.5924 | 1.477
293.15 K, x1 = 0.7015 | 1.076
293.15 K, x1 = 0.7986 | 0.812
293.15 K, x1 = 0.907 | 0.588
293.15 K, x1 = 0.9472 | 0.524
303.15 K, x1 = 0.04903 | 6.486
303.15 K, x1 = 0.1035 | 5.323
303.15 K, x1 = 0.2044 | 3.716
303.15 K, x1 = 0.2954 | 2.745
303.15 K, x1 = 0.3981 | 1.979
303.15 K, x1 = 0.4938 | 1.485
303.15 K, x1 = 0.5991 | 1.098
303.15 K, x1 = 0.7049 | 0.816
303.15 K, x1 = 0.7958 | 0.643
303.15 K, x1 = 0.902 | 0.492
303.15 K, x1 = 0.9436 | 0.446
313.15 K, x1 = 0.05382 | 4.747
313.15 K, x1 = 0.1054 | 4
313.15 K, x1 = 0.2052 | 2.936
313.15 K, x1 = 0.2949 | 2.233
313.15 K, x1 = 0.3955 | 1.66
313.15 K, x1 = 0.4901 | 1.279
313.15 K, x1 = 0.5829 | 1.007
313.15 K, x1 = 0.7 | 0.739
313.15 K, x1 = 0.8016 | 0.58
313.15 K, x1 = 0.9013 | 0.457
313.15 K, x1 = 0.9469 | 0.41

COC(C)=O + CCCCCCCCO
viscosity [mPa·s], 101 kPa
Settings | x2 = 0.053 | x2 = 0.1119 | x2 = 0.1776 | x2 = 0.2515 | x2 = 0.3351 | x2 = 0.4305 | x2 = 0.5404 | x2 = 0.6684 | x2 = 0.8194
298.15 K | 0.436 | 0.505 | 0.601 | 0.736 | 0.932 | 1.232 | 1.722 | 2.573 | 4.177
303.15 K | 0.414 | 0.478 | 0.564 | 0.685 | 0.86 | 1.126 | 1.554 | 2.288 | 3.646
308.15 K | 0.395 | 0.454 | 0.532 | 0.64 | 0.795 | 1.029 | 1.402 | 2.03 | 3.174
313.15 K | 0.374 | 0.429 | 0.5 | 0.596 | 0.734 | 0.941 | 1.267 | 1.808 | 2.773

COCCOC + CCCCCCCCO
298.15 K, 101 kPa
Settings | viscosity [mPa·s]
x1 = 0.1384 | 4.222
x1 = 0.2654 | 2.824
x1 = 0.3825 | 1.922
x1 = 0.4907 | 1.402
x1 = 0.591 | 1.089
x1 = 0.6843 | 0.8523
x1 = 0.7713 | 0.6745
x1 = 0.8525 | 0.5661
x1 = 0.9286 | 0.4789

CCC(C)=O + CCCCCCCO
viscosity [mPa·s], 100 kPa
Settings | x1 = 0.0829 | x1 = 0.1614 | x1 = 0.2389 | x1 = 0.3509 | x1 = 0.4404 | x1 = 0.5592 | x1 = 0.6488 | x1 = 0.7389 | x1 = 0.8502 | x1 = 0.9396
293.15 K | 5.23 | 3.85 | 3.02 | 2.1 | 1.64 | 1.16 | 0.92 | 0.73 | 0.56 | 0.47
303.15 K | 3.72 | 2.97 | 2.31 | 1.69 | 1.31 | 0.9 | 0.73 | 0.6 | 0.45 | 0.39
313.15 K | 2.85 | 2.28 | 1.82 | 1.38 | 1.11 | 0.82 | 0.68 | 0.56 | 0.44 | 0.38
323.15 K | 2.21 | 1.82 | 1.48 | 1.15 | 0.93 | 0.7 | 0.58 | 0.5 | 0.39 | 0.34

COCCOC + CCCCCCCO
101 kPa
Settings | viscosity [mPa·s]
293.15 K, x1 = 0.04689 | 5.696
293.15 K, x1 = 0.1108 | 4.364
293.15 K, x1 = 0.1958 | 3.168
293.15 K, x1 = 0.2906 | 2.308
293.15 K, x1 = 0.402 | 1.645
293.15 K, x1 = 0.4906 | 1.283
293.15 K, x1 = 0.6674 | 0.843
293.15 K, x1 = 0.7068 | 0.768
293.15 K, x1 = 0.8006 | 0.631
293.15 K, x1 = 0.894 | 0.525
293.15 K, x1 = 0.948 | 0.477
303.15 K, x1 = 0.03301 | 4.403
303.15 K, x1 = 0.1088 | 3.286
303.15 K, x1 = 0.1924 | 2.49
303.15 K, x1 = 0.2936 | 1.802
303.15 K, x1 = 0.4015 | 1.325
303.15 K, x1 = 0.4903 | 1.066
303.15 K, x1 = 0.594 | 0.842
303.15 K, x1 = 0.7001 | 0.671
303.15 K, x1 = 0.8062 | 0.542
303.15 K, x1 = 0.8901 | 0.467
303.15 K, x1 = 0.9469 | 0.425
313.15 K, x1 = 0.04399 | 3.176
313.15 K, x1 = 0.1188 | 2.473
313.15 K, x1 = 0.1968 | 1.933
313.15 K, x1 = 0.2941 | 1.478
313.15 K, x1 = 0.404 | 1.121
313.15 K, x1 = 0.4883 | 0.918
313.15 K, x1 = 0.6006 | 0.717
313.15 K, x1 = 0.6962 | 0.591
313.15 K, x1 = 0.8094 | 0.482
313.15 K, x1 = 0.9 | 0.41
313.15 K, x1 = 0.9404 | 0.386
